Experimental data: patent US12371752B2 (priority 2019, dated 2025)

Test system: Arthrobacter ureafaciens-derived neuraminidase
Experiment: Reactivity of probe with Arthrobacter ureafaciens-derived neuraminidase (time-dependent fluorescence intensity)
Type: biochemical
Conditions: probe 1 μM, 0.01 U neuraminidase, 100 mm NaOAc, 2 mM CaCl2, pH7.4, 37° C., excitation 490 nm, emission 520 nm
Description: A probe (HMRef-S-Neu5Ac) was dissolved in dimethyl sulfoxide (DMSO, fluorescence measurement grade, Dojindo Laboratories) to obtain a stock solution. The stock solution was diluted with a buffer solution (100 mm NaOAc, 2 mM CaCl2, pH7.4) such that a final concentration of the probe became 1 μM, to obtain a measurement solution.
A fluorescence spectrum of the measurement solution was obtained by Hitachi F-700, every one second (excitation wavelength 490 nm, emission wavelength 520 nm). Sixty seconds after initiation of measurement, 0.01 U of Arthrobacter ureafaciens-derived neuraminidase was added singly or in combination with an enzyme inhibitor.

## CC(=O)N[C@H]1[C@H]([C@H](O)[C@H](O)CO)O[C@@](Oc2ccc(COc3ccc4c(c3)Oc3cc(NCC(F)(F)F)ccc3C43OCc4ccccc43)cc2)(C(=O)O)C[C@@H]1O (stereo partly shown) [HMRef-S-Neu5Ac]
  increase of fluorescence intensity by the reaction with the bacterium-derived neuraminidase: 130 times
